Experimental data: patent US20240252650A1, “LIPID COMPOUNDS AND LIPID NANOPARTICLE COMPOSITIONS” (SUZHOU ABOGEN BIOSCIENCES CO., LTD., priority 2021, published 2024)

What was measured:
[1] = Lipid nanoparticle size and polydispersity by dynamic light scattering (Malvern Zetasizer Nano ZS); type: physicochemical; settings: LNP: cationic lipid/DSPC/cholesterol/PEG-lipid 50:10:38.5:1.5, mRNA; table of Example 15
Procedure: (§1) Briefly, a cationic lipid provided herein, DSPC, cholesterol, and PEG-lipid were solubilized in ethanol at a molar ratio of 50:10:38.5:1.5, and mRNA were diluted in 10 to 50 mM citrate buffer, pH=4. The LNPs were prepared at a total lipid to mRNA weight ratio of approximately 10:1 to 30:1 by mixing the ethanolic lipid solution with the aqueous mRNA solution at a volume ratio of 1:3 using a microfluidic apparatus, total flow rate ranging from 9-30 mL/min. Ethanol were thereby removed and replaced by DPBS using dialysis. Finally, the lipid nanoparticles were filtered through a 0.2 μm sterile filter.
(§2) Lipid nanoparticle size were determined by dynamic light scattering using a Malvern Zetasizer Nano ZS (Malvern UK) using a 173° backscatter detection mode. The encapsulation efficiency of lipid nanoparticles were determined using a Quant-it Ribogreen RNA quantification assay kit (Thermo Fisher Scientific, UK) according to the manufacturer's instructions.

[2] = Encapsulation efficiency of lipid nanoparticles (Quant-it Ribogreen RNA quantification assay); type: physicochemical; settings: LNP: cationic lipid/DSPC/cholesterol/PEG-lipid 50:10:38.5:1.5, mRNA; table of Example 15
Procedure: as §1, §2

[3] = Apparent pKa of LNP formulations by TNS fluorescence assay; type: physicochemical; settings: LNP cationic lipid/DSPC/cholesterol/DMG-PEG 50/10/38.5/1.5 mol %, table of Example 15
Procedure: As reported in literature, the apparent pKa of LNP formulations correlates with the delivery efficiency of LNPs for nucleic acids in vivo. The apparent pKa of each formulation was determined using an assay based on fluorescence of 2-(p-toluidino)-6-napthalene sulfonic acid (TNS). LNP formulations comprising of cationic lipid/DSPC/cholesterol/DMG-PEG (50/10/38.5/1.5 mol %) in PBS were prepared as described above. TNS was prepared as a 300 uM stock solution in distilled water. LNP formulations were diluted to 0.1 mg/ml total lipid in 3 mL of buffered solutions containing 50 mM sodium citrate, 50 mM sodium phosphate, 50 mM sodium borate, and 30 mM sodium chloride where the pH ranged from 3 to 9. An aliquot of the TNS solution was added to give a final concentration of 0.1 mg/ml and following vortex mixing fluorescence intensity was measured at room temperature in a Molecular Devices Spectramax iD3 spectrometer using excitation and mission wavelengths of 325 nm and 435 nm. A sigmoidal best fit analysis was applied to the fluorescence data and the pKa value was measured as the pH giving rise to half-maximal fluorescent intensity.

female Balb/c mice = experiment: Animal study: LNPs encapsulating luciferase mRNA, tail vein injection, organ bioluminescence imaging (IVIS Spectrum CT); type: in vivo; settings: luciferase mRNA LNP, 0.25 mg/kg tail vein; for bone marrow* Avg Radiance: bone marrow at 6 h; for brain* Avg Radiance: dissected brain at 6 h; for heart* Avg Radiance: dissected heart at 6 h; for kidney* Avg Radiance: dissected kidney at 6 h; for liver* Avg Radiance: dissected liver at 6 h; for lung* Avg Radiance: dissected lung at 6 h; for spleen* Avg Radiance: dissected spleen at 6 h
Procedure: Lipid nanoparticles comprising certain compounds provided herein encapsulating luciferase encoding (luciferase) mRNA were systemically administered to 6-8 week old female Balb/c mice (Charles River Lab, ZheJiang) at 0.25 mg/kg dose by tail vein injection, and mice blood were sampled at specific time points (e.g., 6 hours) post administration. Optical imaging was performed using the IVIS Spectrum CT device (PerkinElmer Inc., Paris, France). The luminescence level was evaluated by an ROI applied to the injection site zone (Living Image software, PerkinElmer Inc., Paris, France).
Radiance of heart, liver, spleen, lung, kidney, brain and bone marrow were taken at 6 h. Dissected organs were placed on a black sheet and imaged with IVIS Spectrum CT (PerkinElmer, Hopkinton, MA). To quantify bioluminescence emission signal, identical regions of interest (ROI) were positioned to encircle each organ region, the imaging signal was quantitated as average radiance (photons/s/cm2/steradian).

polydispersity [1]	size (nm) [1] [nm]	Encapsulation Efficiency [2] [%]	Apparant Pka [3]	SMILES	bone marrow* Avg Radiance (female Balb/c mice)	brain* Avg Radiance (female Balb/c mice)	heart* Avg Radiance (female Balb/c mice)	kidney* Avg Radiance (female Balb/c mice)	liver* Avg Radiance (female Balb/c mice)	lung* Avg Radiance (female Balb/c mice)	spleen* Avg Radiance (female Balb/c mice)	luciferase expression in bone marrow (in words) (female Balb/c mice; 6 h)
0.033	71.59	91.21	6.499	CCCCC/C=C\C/C=C\CCCCCCCC(=O)OCC(COC(=O)CCC(OCCCCCCCC)OCCCCCCCC)COC(=O)OCCCN(CCO)C1CCC1 (centres unmarked) [Compound 115]	−0.66 E+04 p/s/cm^2/sr	14.59 E+04 p/s/cm^2/sr	13.74 E+04 p/s/cm^2/sr	27.83 E+04 p/s/cm^2/sr	44.21 E+06 p/s/cm^2/sr	7.01 E+04 p/s/cm^2/sr	1.06 E+06 p/s/cm^2/sr	
0.078	90.89	90.85	7.1	CCCCC/C=C\C/C=C\CCCCCCCC(=O)OCC(COC(=O)CCCCCCC/C=C\C/C=C\CCCCC)COC(=O)CCCCCCCN(CCO)C1CCC1 [Compound 124]	2.2 E+04 p/s/cm^2/sr	16.34 E+04 p/s/cm^2/sr	32.73 E+04 p/s/cm^2/sr	34.36 E+04 p/s/cm^2/sr	47.09 E+06 p/s/cm^2/sr	16.04 E+04 p/s/cm^2/sr	11.21 E+06 p/s/cm^2/sr	mild expression
